The target of this test is c-kit WT (Homo sapiens (Human), UniProt P10721). Put plainly: Proliferation assay (CellTiter-Blue) on BaF3 Kit WT cell line. Format: cell-based. As to conditions: BaF3 Kit WT cell line (murine Ba/F3 expressing Human Kit WT, with murine SCF), 48 hours. How it is done:
Procedures of C-Kit WT Inhibition Assays:
Colorimetric cell proliferation and viability assay (reagent CellTiter-Blue purchased from Promega cat N°G8081) was performed on BaF3 Kit WT cell line.
A total of 2.10^4 cells/50 μl were seeded per well of a 96-wells plate. Treatment was initiated by addition of a 2× drug solution of ½ serial dilutions ranging from 0 to 10 μM. After incubating for 48 hours at 37° C., 10 μl of a ½ dilution of CellTiter-Blue reagent was added to each well and the plates were returned to the incubator for an additional 4 hours. The fluorescence intensity from the CellTiter-Blue reagent is proportional to the number of viable cells and data were recorded (544Ex/590Em) using a POLARstar OMEGA microplate reader (BMG LabteckSarl). A background control without cells was used as a blank. The positive control of the assay corresponds to the cell proliferation obtained in the absence of drug treatment (100% proliferation). Each sample was done in triplicate. The results were expressed as a percentage of the proliferation obtained in absence of treatment. All drugs were prepared as 20 mM stock solutions in DMSO and conserved at −80° C. Drug dilutions were made fresh in medium before each experiment. A DMSO control was included in each experiment.
The cell line expressing Human Kit WT was derived from the murine IL3-dependent Ba/F3 proB lymphoid cells. Ba/F3 Kit WT cells were maintained in RPMI medium containing 10% FCS and supplemented with 250 ng/ml of recombinant murine SCF.
Background: Resazurin is reduced to fluorescent resorufin, in cell work by metabolically active cells.

This note sets out measurements from US10202370B2, “Benzimidazole derivatives as selective proteine kinase inhibitors” (AB SCIENCE, priority 2013, dated 2019).

Bounds are passed on as bounds.

Sequence of c-kit WT (P10721 26-976): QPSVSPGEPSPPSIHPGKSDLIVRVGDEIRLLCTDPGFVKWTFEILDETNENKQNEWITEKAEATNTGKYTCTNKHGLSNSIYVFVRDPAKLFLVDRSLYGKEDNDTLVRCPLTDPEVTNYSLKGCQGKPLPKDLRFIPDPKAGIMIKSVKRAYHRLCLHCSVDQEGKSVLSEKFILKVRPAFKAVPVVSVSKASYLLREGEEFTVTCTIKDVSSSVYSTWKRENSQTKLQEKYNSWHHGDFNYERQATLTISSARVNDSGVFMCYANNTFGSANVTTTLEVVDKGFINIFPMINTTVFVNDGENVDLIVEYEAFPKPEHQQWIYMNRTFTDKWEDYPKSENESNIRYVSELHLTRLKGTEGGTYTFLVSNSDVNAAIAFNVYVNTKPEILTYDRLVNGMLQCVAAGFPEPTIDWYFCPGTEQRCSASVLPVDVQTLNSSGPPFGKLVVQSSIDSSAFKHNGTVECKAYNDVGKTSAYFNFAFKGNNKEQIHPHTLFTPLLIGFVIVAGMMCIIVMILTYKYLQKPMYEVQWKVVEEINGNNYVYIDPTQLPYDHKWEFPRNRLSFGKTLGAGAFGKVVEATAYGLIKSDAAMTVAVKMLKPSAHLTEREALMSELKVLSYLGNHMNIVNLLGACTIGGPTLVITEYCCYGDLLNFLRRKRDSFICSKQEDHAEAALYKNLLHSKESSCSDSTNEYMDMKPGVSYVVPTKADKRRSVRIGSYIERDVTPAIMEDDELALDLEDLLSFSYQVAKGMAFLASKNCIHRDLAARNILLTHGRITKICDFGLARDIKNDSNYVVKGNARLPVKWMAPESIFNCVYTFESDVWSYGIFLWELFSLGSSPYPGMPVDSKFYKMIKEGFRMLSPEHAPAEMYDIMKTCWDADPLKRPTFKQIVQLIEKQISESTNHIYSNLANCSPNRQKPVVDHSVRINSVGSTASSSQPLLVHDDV

By IC50 is commonly meant the concentration that gives 50% inhibition. Higher therefore signals lower potency. With `Cc1cc2nc(-c3cccc(C(F)F)c3)[nH]c2cc1Nc1nc(-c2ccncc2)cs1` [Compound 045, [2-(3-Difluoromethyl-phenyl)-6-methyl-3H-benzoimidazol-5-yl]-(4-pyridin-4-yl-thiazol-2-yl)-amine], the IC50 was at most 1 µM. With `Cc1cc2nc(-c3cccc(CN4CCN(C)CC4)c3)[nH]c2cc1Nc1nc(-c2ccncc2)cs1` [Compound 046, {6-Methyl-2-[3-(4-methyl-piperazin-1-ylmethyl)-phenyl]-1H-benzoimidazol-5-yl}-(4-pyridin-4-yl-thiazol-2-yl)-amine] the figure was 1 to 10 µM.

Molecule `Cc1cc2nc(-c3cccc(OC(F)(F)F)c3)[nH]c2cc1Nc1nc(-c2ccncc2)cs1` [Compound 047, [6-Methyl-2-(3-trifluoromethoxy-phenyl)-3H-benzoimidazol-5-yl]-(4-pyridin-4-yl-thiazol-2-yl)-amine] showed an IC50 of at most 1 µM. Regarding `Cc1cc2nc(-c3ccc(CN4CCN(C)CC4)cc3)[nH]c2cc1Nc1nc(-c2ccncc2)cs1` [Compound 048, {6-Methyl-2-[4-(4-methyl-piperazin-1-ylmethyl)-phenyl]-1H-benzoimidazol-5-yl}-(4-pyridin-4-yl-thiazol-2-yl)-amine], the IC50 was in the range of 1 to 10 µM. As to `Cc1cc2nc(-c3cncc(C(F)(F)F)c3)[nH]c2cc1Nc1nc(-c2cccnc2)cs1` [Compound 049, [6-Methyl-2-(5-trifluoromethyl-pyridin-3-yl)-3H-benzoimidazol-5-yl]-(4-pyridin-3-yl-thiazol-2-yl)-amine], the half-maximal inhibitory concentration (IC50) was at most 1 µM. `Cc1cc2nc(-c3ccc(C(F)(F)F)cc3)[nH]c2cc1Nc1nc(-c2ccncc2)cs1` [Compound 050, [6-Methyl-2-(4-trifluoromethyl-phenyl)-3H-benzoimidazol-5-yl]-(4-pyridin-4-yl-thiazol-2-yl)-amine]: the IC50 is at most 1 µM. Then `Cc1cc2nc(Cc3cccc(C(F)(F)F)c3)[nH]c2cc1Nc1ncc(-c2ccncc2)o1` [Compound 051, [6-Methyl-2-(3-trifluoromethyl-benzyl)-3H-benzoimidazol-5-yl]-(5-pyridin-4-yl-oxazol-2-yl)-amine], with 1 to 10 µM. Turning to `Cc1cc2nc(Cc3cccc(F)c3)[nH]c2cc1Nc1ncc(-c2ccncc2)o1` [Compound 052, [2-(3-Fluoro-benzyl)-6-methyl-3H-benzoimidazol-5-yl]-(5-pyridin-4-yl-oxazol-2-yl)-amine], the half-inhibitory concentration (IC50) was 1 to 10 µM. In the case of `Cc1cc2nc(-c3cccc(C(F)(F)F)c3)[nH]c2cc1Nc1ncc(-c2ccncc2)o1` [Compound 053, [6-Methyl-2-(3-trifluoromethyl-phenyl)-3H-benzoimidazol-5-yl]-(5-pyridin-4-yl-oxazol-2-yl)-amine], the IC50 is 1 to 10 µM. In the case of `Cc1cc2nc(Cc3ccc(C(F)(F)F)cc3)[nH]c2cc1Nc1ncc(-c2ccncc2)o1` [Compound 054, [6-Methyl-2-(4-trifluoromethyl-benzyl)-3H-benzoimidazol-5-yl]-(5-pyridin-4-yl-oxazol-2-yl)-amine], the IC50 lay in the range of 1 to 10 µM. `Cc1cc2nc(CN3CCOCC3)[nH]c2cc1Nc1ncc(-c2ccncc2)o1` [Compound 055, (6-Methyl-2-morpholin-4-ylmethyl-3H-benzoimidazol-5-yl)-(5-pyridin-4-yl-oxazol-2-yl)-amine] came in with a half-maximal inhibitory concentration (IC50) of 1 to 10 µM. `Cc1cc2nc(-c3ccc(C)c(C(F)(F)F)c3)[nH]c2cc1Nc1nc(-c2cccnc2)cs1` [Compound 056, [6-Methyl-2-(4-methyl-3-trifluoromethyl-phenyl)-3H-benzoimidazol-5-yl]-(4-pyridin-3-yl-thiazol-2-yl)-amine] gave an IC50 of at most 1 µM.

For the molecule `Cc1cc2nc(-c3ccc(-n4cccn4)cc3)[nH]c2cc1Nc1nc(-c2cccnc2)cs1` [Compound 057, [6-Methyl-2-(4-pyrazol-1-yl-phenyl)-3H-benzoimidazol-5-yl]-(4-pyridin-3-yl-thiazol-2-yl)-amine], the IC50 is at most 1 µM.
